Series [1] concerns BaF3 cells expressing CRLF2 Phe232Cys. Put plainly: In vitro cell growth in the absence of IL-3 with TSLP added. It is filed as cell-based, murine. As to conditions: TSLP 1 ng/mL added at day 0, FIG. 3. Here is the method: (§1) FIG. 3 is a group of four graphs depicting in vitro cell growth of UT7 cells and BaF cells that stably express CRLF2 and/or JAK2 alleles grown in the absence of GM-CSF (UT7) or IL-3 (BaF3). For the bottom right panel, TSLP 1 ng/mL was added at day 0, as indicated. Growth is the number of viable cells relative to the number of cells initially seeded on day 0. Error bars represent one standard deviation.
(§2) Unlike cells that express CRLF2/IL-7R, the addition of TSLP had no effect on the growth of BaF3 cells expressing CRLF2 Phe232Cys (FIG. 3).

The test system of series [2] is BaF3 cells that express CRLF2 Phe232Cys/IL-7R. The description is as above. To be noted: BaF3 CRLF2 Phe232Cys/IL-7R, TSLP 1 ng/mL added at day 0, FIG. 3. It is filed as cell-based, murine. The procedure: as §1, §2
Series [3] relates to BaF3 cells that express CRLF2/mutant JAK2. Described as above. The class given is cell-based, murine. The procedure: as §1, §2
The test system of series [4] is STAT5, ERK or JAK2 phosphorylation in cells with mutant CRLF2 or JAK2 proteins. Put plainly: Phosphorylation of STAT5, ERK and JAK2 in BaF3 cells treated with TSLP. The class given is cell-based, murine. The source says: In BaF3 cells, both CRLF2 Phe232Cys and CRLF2/mutant JAK2 promoted the phosphorylation of the JAK targets STAT5 and ERK.
(§3) As expected, TSLP had no effect on STAT5, ERK or JAK2 phosphorylation in cells with mutant CRLF2 or JAK2 proteins.

For series [5], the system named is phospho-JAK2 in CRLF2/IL-7R cells. Put plainly: Phospho-JAK2 in CRLF2/IL-7R cells treated with TSLP. The class given is cell-based, murine.
Excerpt: as §3

The test system of series [6] is BaF3-CRLF2 Phe232Cys cells. The series can be described thus: Toxicity of agents with activity against PKC family kinases in BaF3 cells. The class given is cell-based, murine.
Series [7] has as its system BaF3 cells expressing CRLF2 Phe232Cys. The series can be described thus: Viability of BaF3 cells exposed to JAK inhibitor-1 for 72 hours, relative to vehicle. The class given is cell-based, murine. To be noted: no cytokines, FIG. 5. The procedure: (§4) FIG. 5 is a graph depicting signal activation and dependence on JAK signaling. BaF3 cells that stably express BCR/ABL, CRLF2 and/or JAK2 were grown in the absence of cytokines. +IL3 indicates unmodified BaF3 cells grown in the presence of 500 pg/mL IL-3. Data represents the ratio of viable cells exposed to JAK inhibitor-1 (Calbiochem) at varying concentrations for 72 hours, compared to the same cell line exposed to vehicle. Error bars indicate one standard deviation.
as §3

The subject of series [8] is BaF3 cells expressing CRLF2/mutant JAK2. The description is as above. The class given is cell-based, murine. As to conditions: BaF3 CRLF2/mutant JAK2, no cytokines, FIG. 5. Here is the method: as §4, §3
Series [9] concerns the molecule itself. Put plainly: immunoblot of BaF3 cells under reducing and non-reducing conditions (homodimer). Here is the method:
(§5) The CRLF2 Phe232 residue is near the junction of the extracellular and transmembrane domains. Mutations that introduce cysteine residues in this region of other receptor tyrosine kinases, such as RET, can activate signal transduction through intermolecular disulfide-bonded dimers. To confirm that CRLF2 Phe232Cys promotes constitutive dimerization, immunoblots in BaF3 cells expressing wild-type CRLF2 or CRLF2 Phe232Cys were performed under both reducing and non-reducing conditions. Under non-reducing conditions, the molecular weight of the CRLF2 Phe232Cys band, but not the wild-type band, was doubled, consistent with constitutive dimerization through the cysteine residues.
For orientation: Immunoblotting shows a protein as a band on a membrane.

Series [10] concerns the molecule itself. Put plainly: immunoblot of BaF3 cells under reducing and non-reducing conditions (self-association). The procedure:
as §5

Substitutions are numbered along the chain they refer to. In names and notes the source's numbering stands.

Take “TSLP: thymic stromal lymphopoietin, cytokine ligand of the CRLF2/IL-7R heterodimer”: the results for the “effect of TSLP on cell growth” value in series [1], in series [2] and in series [3] were “no effect”, “promoted the growth” and “did not promote the growth”, respectively. In addition, in series [4], the “effect of TSLP on STAT5, ERK or JAK2 phosphorylation” value was “no effect”. For the same molecule, in series [5], the “phospho-JAK2 after TSLP treatment” value is recorded as “no detectable phospho-JAK2”.

As to `CO[C@@H]1[C@H](N(C)C(=O)c2ccccc2)C[C@H]2O[C@]1(C)n1c3ccccc3c3c4c(c5c6ccccc6n2c5c31)C(=O)NC4` [PKC412], the “toxicity in BaF3-CRLF2 Phe232Cys cells as compared to BaF3 cells expressing wild-type CRLF2” value in [6] is “selective toxicity”.

As to `CN[C@@H]1C[C@H]2O[C@@](C)([C@@H]1OC)n1c3ccccc3c3c4c(c5c6ccccc6n2c5c31)C(=O)N[C@@H]4O` [UCN-01], the “toxicity in BaF3-CRLF2 Phe232Cys cells as compared to BaF3 cells expressing wild-type CRLF2” value in series [6] is “selective toxicity”.

With `COC(=O)[C@@]1(O)C[C@H]2O[C@]1(C)n1c3ccccc3c3c4c(c5c6ccccc6n2c5c31)C(=O)NC4` [k252a], the “toxicity in BaF3-CRLF2 Phe232Cys cells as compared to BaF3 cells expressing wild-type CRLF2” value in series [6] is on record as “selective toxicity”.

Turning to `CC(C)(C)c1nc2c3cc[nH]c(=O)c3c3cc(F)ccc3c2[nH]1` [small molecule JAK inhibitor], the “sensitivity of cells to JAK inhibitor (ratio of viable cells versus vehicle)” value in series [7] and in series [8] was “highly sensitive” throughout.

Turning to `Cn1c2ccccc2c2c3c(c4c5ccccc5n(CCC#N)c4c21)CNC3=O` [Go6976], the “toxicity in BaF3-CRLF2 Phe232Cys cells as compared to BaF3 cells expressing wild-type CRLF2” value in series [6] is listed as “selective toxicity”.

B1: CRLF2 Phe232Cys (F232C mutant of human CRLF2) (receptor)
chain: QGGAAEGVQIQIIYFNLETVQVTWNASKYSRTNLTFHYRFNGDEAYDQCTNYLLQEGHTSGCLLDAEQRDDILYFSIRNGTHPVFTASRWMVYYLKPSSPKHVRFSWHQDAVTVTCSDLSYGDLLYEVQYRSPFDTEWQSKQENTCNVTIEGLDAEKCYSFWVRVKAMEDVYGPDTYPSDWSEVTCWQRGEIRDACAETPTPPKPKLSKCILISSLAILLMVSLLLLSLWKLWRVKKFLIPSVPDPKSIFPGLFEIHQGNFQEWITDTQNVAHLHKMAGAEQESGPEEPLVVQLAKTEAESPRMLDPQTEEKEASGGSLQLPHQPLQGGDVVTIGGFTFVMNDRSYVAL
notes: Expressed in BaF3 cells; also called CRLF2 F232C; CRLF2 711T>G
As for B1, the binding result in series [9] was “binds”.

B2: wild-type human cytokine receptor-like factor 2 (CRLF2) (receptor)
chain: B1 chain with C210F
notes: Expressed by retrovirus in BaF3 cells and detected by immunoblot of the cells; also called wt CRLF2; CRL2
B2: in [10], the binding result is “no binding”.

(Values after patent US20120282258A1, “CRLF2 IN PRECURSOR B-CELL ACUTE LYMPHOBLASTIC LEUKEMIA” (DANA-FARBER CANCER INSTITUTE, INC., priority 2009, published 2012).)
